Data as given in publication PMC6423783, “Flavokawain B targets protein neddylation for enhancing the anti-prostate cancer effect of Bortezomib via Skp2 degradation” (Cell Communication and Signaling : CCS, 2019).

Target: T1, NAE1 regulatory subunit APP-BP1 (NEDD8 activating enzyme, NAE) (Homo sapiens, UniProt Q13564)
T1 construct: APP-BP1/UBA3 (NEDD8 ligase E1); with UBA3
T1 sequence (Q13564 2-534): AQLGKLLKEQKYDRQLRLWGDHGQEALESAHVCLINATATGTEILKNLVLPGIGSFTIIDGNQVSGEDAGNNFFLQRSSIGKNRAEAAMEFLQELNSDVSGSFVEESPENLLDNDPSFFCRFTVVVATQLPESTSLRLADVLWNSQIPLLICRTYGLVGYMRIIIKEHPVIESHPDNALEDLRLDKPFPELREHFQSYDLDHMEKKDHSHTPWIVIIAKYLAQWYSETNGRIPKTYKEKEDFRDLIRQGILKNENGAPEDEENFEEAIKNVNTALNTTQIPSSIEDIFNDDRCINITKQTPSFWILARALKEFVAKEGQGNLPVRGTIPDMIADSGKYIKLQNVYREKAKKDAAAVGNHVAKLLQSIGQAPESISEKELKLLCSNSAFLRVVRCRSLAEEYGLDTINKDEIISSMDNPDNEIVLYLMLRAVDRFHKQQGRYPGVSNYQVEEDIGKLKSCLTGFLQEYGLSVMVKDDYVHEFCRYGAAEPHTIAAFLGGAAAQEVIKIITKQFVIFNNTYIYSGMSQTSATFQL
T1 sequence (Q8TBC4 2-463 partner): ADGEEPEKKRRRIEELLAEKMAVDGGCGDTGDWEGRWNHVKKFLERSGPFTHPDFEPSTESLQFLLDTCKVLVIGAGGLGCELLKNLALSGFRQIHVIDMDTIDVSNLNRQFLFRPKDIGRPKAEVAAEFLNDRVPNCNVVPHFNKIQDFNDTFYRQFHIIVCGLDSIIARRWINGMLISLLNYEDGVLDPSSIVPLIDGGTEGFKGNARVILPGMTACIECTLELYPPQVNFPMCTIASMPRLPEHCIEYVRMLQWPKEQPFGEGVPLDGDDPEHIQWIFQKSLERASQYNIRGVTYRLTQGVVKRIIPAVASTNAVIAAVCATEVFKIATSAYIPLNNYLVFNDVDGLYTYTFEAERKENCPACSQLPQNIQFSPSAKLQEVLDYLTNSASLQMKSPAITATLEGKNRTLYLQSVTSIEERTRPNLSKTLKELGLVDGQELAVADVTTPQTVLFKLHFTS
Experiment: in vitro NEDD8 initiation conjugation assay (APP-BP1/UBA3, UbcH12, NEDD8; Western readout), supported by CETSA of APP-BP1 in PC3 cells
Type: biochemical
Method: in vitro NEDD8 initiation conjugation assay (APP-BP1/UBA3, UbcH12, NEDD8; Western readout), supported by CETSA of APP-BP1 in PC3 cells on NAE1 regulatory subunit APP-BP1 (NEDD8 activating enzyme, NAE) | The relative density of NEDD8-Ubc12 to the control was analyzed to have an estimated IC50 of approximately11μM

IC50: ~11 µM
Compound: COc1cc(O)c(C(=O)/C=C/c2ccccc2)c(OC)c1 [FKB, Flavokawain B]
